Target: GST-Bcl-2 (Homo sapiens (Human), UniProt P10415)
Test: Time Resolved-Fluorescence Resonance Energy Transfer (TR-FRET) Bcl-2 binding assay
Details: not given
Outline: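 Ki values derived from TR-FRET displacement of F-Bak peptide from GST-Bcl-2, detected with Tb-labelled anti-GST antibody (ex 340, em 520/495 nm). Compound dilution series started at 50 μM (2× starting concentration); room-temperature incubation 3 hours.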

Chain of GST-Bcl-2 (P10415 whole entry): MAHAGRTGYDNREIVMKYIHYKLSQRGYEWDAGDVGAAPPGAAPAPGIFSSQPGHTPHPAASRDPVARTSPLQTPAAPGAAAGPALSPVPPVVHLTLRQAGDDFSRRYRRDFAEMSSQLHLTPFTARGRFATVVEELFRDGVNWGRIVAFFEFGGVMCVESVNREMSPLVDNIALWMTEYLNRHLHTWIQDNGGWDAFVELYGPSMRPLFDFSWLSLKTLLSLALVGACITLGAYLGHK

Question: For `CO[C@H]1CC[C@H](CNc2ccc(S(=O)(=O)NC(=O)c3ccc(N4CCN(CC5=C(c6ccc(Cl)cc6)CC(C)(C)CC5)CC4)cc3Oc3cnc(N)c(Br)c3)cc2[N+](=O)[O-])CC1` [Example 367, Trans-2-[(6-amino-5-bromopyridin-3-yl)oxy]-4-(4-{[2-(4-chlorophenyl)-4,4-dimethylcyclohex-1-en-1-yl]methyl}piperazin-1-yl)-N-[(4-{[(4-methoxycyclohexyl)methyl]amino}-3-nitrophenyl)sulfonyl]benzamide], which Ki is on record?
Answer: 0.012 nM

Question: `CO[C@H]1CC[C@H](CNc2ccc(S(=O)(=O)NC(=O)c3ccc(N4CCN(CC5=C(c6ccc(Cl)cc6)CC(C)(C)CC5)CC4)cc3Oc3ccc(NCC(F)F)nc3)cc2[N+](=O)[O-])CC1` [Example 375, Trans-4-(4-{[2-(4-chlorophenyl)-4,4-dimethylcyclohex-1-en-1-yl]methyl}piperazin-1-yl)-2-({6-[(2,2-difluoroethyl)amino]pyridin-3-yl}oxy)-N-[(4-{[(4-methoxycyclohexyl)methyl]amino}-3-nitrophenyl)sulfonyl]benzamide] was tested. Which Ki did it give?
Answer: 328 nM

Same assay, conditions: GST-Bcl-2 1 nM, F-Bak peptide probe 100 nM, Tb-anti-GST antibody 1 nM; Ki by Wang's equation

Question: For `CC1(C)CCC(CN2CCN(c3ccc(C(=O)NS(=O)(=O)c4ccc(NC5CCN(C6COC6)CC5)c([N+](=O)[O-])c4)c(Oc4cnc(N)c(Cl)c4)c3)CC2)=C(c2ccc(Cl)cc2)C1` [Example 364, 2-[(6-amino-5-chloropyridin-3-yl)oxy]-4-(4-{[2-(4-chlorophenyl)-4,4-dimethylcyclohex-1-en-1-yl]methyl}piperazin-1-yl)-N-({3-nitro-4-[(1-oxetan-3-ylpiperidin-4-yl)amino]phenyl}sulfonyl)benzamide], which Ki is on record?
Answer: 0.014 nM

Question: With `CC(C)c1cc(Oc2cc(N3CCN(CC4=C(c5ccc(Cl)cc5)CC(C)(C)CC4)CC3)ccc2C(=O)NS(=O)(=O)c2ccc(NCC3CCOCC3)c([N+](=O)[O-])c2)cnc1N` [Example 365, 2-[(6-amino-5-isopropylpyridin-3-yl)oxy]-4-(4-{[2-(4-chlorophenyl)-4,4-dimethylcyclohex-1-en-1-yl]methyl}piperazin-1-yl)-N-({3-nitro-4-[(tetrahydro-2H-pyran-4-ylmethyl)amino]phenyl}sulfonyl)benzamide] as the compound, how does the Ki read?
Answer: 4.55 nM

Question: For `CC1(C)CCC(CN2CCN(c3ccc(C(=O)NS(=O)(=O)c4ccc(NCC5CCOCC5)c([N+](=O)[O-])c4)c(Oc4cnc(N)c(C5CC5)c4)c3)CC2)=C(c2ccc(Cl)cc2)C1` [Example 366, 2-[(6-amino-5-cyclopropylpyridin-3-yl)oxy]-4-(4-{[2-(4-chlorophenyl)-4,4-dimethylcyclohex-1-en-1-yl]methyl}piperazin-1-yl)-N-({3-nitro-4-[(tetrahydro-2H-pyran-4-ylmethyl)amino]phenyl}sulfonyl)benzamide], which Ki is on record?
Answer: 6.05 nM

Question: Which Ki does the source give for `Cn1c(=O)[nH]c2cccc(Oc3cc(N4CCN(CC5=C(c6ccc(Cl)cc6)CC(C)(C)CC5)CC4)ccc3C(=O)NS(=O)(=O)c3ccc(NCC4CCOCC4)c([N+](=O)[O-])c3)c21` [Example 368, 4-(4-{[2-(4-chlorophenyl)-4,4-dimethylcyclohex-1-en-1-yl]methyl}piperazin-1-yl)-2-[(3-methyl-2-oxo-2,3-dihydro-1H-benzimidazol-4-yl)oxy]-N-({3-nitro-4-[(tetrahydro-2H-pyran-4-ylmethyl)amino]phenyl}sulfonyl)benzamide] here?
Answer: < 0.01 nM

Question: How did the Ki turn out when `CC1(C)CCC(CN2CCN(c3ccc(C(=O)NS(=O)(=O)c4ccc(NCC5CN(C6CC6)CCO5)c([N+](=O)[O-])c4)c(Oc4cnc(N)c(Cl)c4)c3)CC2)=C(c2ccc(Cl)cc2)C1` (stereo not drawn) [Example 369, 2-[(6-amino-5-chloropyridin-3-yl)oxy]-4-(4-{[2-(4-chlorophenyl)-4,4-dimethylcyclohex-1-en-1-yl]methyl}piperazin-1-yl)-N-[(4-{[(4-cyclopropylmorpholin-2-yl)methyl]amino}-3-nitrophenyl)sulfonyl]benzamide] was run?
Answer: 0.014 nM

Question: Which Ki does the source give for `CC1(C)CCC(CN2CCN(c3ccc(C(=O)NS(=O)(=O)c4ccc(N[C@@H]5CCN(C6CC6)C5)c([N+](=O)[O-])c4)c(Oc4cnc(N)c(Cl)c4)c3)CC2)=C(c2ccc(Cl)cc2)C1` [Example 370, 2-[(6-amino-5-chloropyridin-3-yl)oxy]-4-(4-{[2-(4-chlorophenyl)-4,4-dimethylcyclohex-1-en-1-yl]methyl}piperazin-1-yl)-N-[(4-{[(3R)-1-cyclopropylpyrrolidin-3-yl]amino}-3-nitrophenyl)sulfonyl]benzamide] here?
Answer: < 0.01 nM

Question: For `CC1(C)CCC(CN2CCN(c3ccc(C(=O)NS(=O)(=O)c4ccc(OCC5(F)CCN(C(CF)CF)CC5)c([N+](=O)[O-])c4)c(Oc4cnc(N)c(Cl)c4)c3)CC2)=C(c2ccc(Cl)cc2)C1` [Example 371, 2-[(6-amino-5-chloropyridin-3-yl)oxy]-4-(4-{[2-(4-chlorophenyl)-4,4-dimethylcyclohex-1-en-1-yl]methyl}piperazin-1-yl)-N-{[4-({4-fluoro-1-[2-fluoro-1-(fluoromethyl)ethyl]piperidin-4-yl}methoxy)-3-nitrophenyl]sulfonyl}benzamide], which Ki is on record?
Answer: < 0.01 nM

Question: How did the Ki turn out when `CC1(C)CCC(CN2CCN(c3ccc(C(=O)NS(=O)(=O)c4ccc(NCC5CCOCC5)c([N+](=O)[O-])c4)c(Oc4cc(Br)nc(NC(=O)OC(C)(C)C)c4)c3)CC2)=C(c2ccc(Cl)cc2)C1` [Example 372, tert-butyl 6-bromo-4-(5-(4-{[2-(4-chlorophenyl)-4,4-dimethylcyclohex-1-en-1-yl]methyl}piperazin-1-yl)-2-{[({3-nitro-4-[(tetrahydro-2H-pyran-4-ylmethyl)amino]phenyl}sulfonyl)amino]carbonyl}phenoxy)pyridin-2-ylcarbamate] was run?
Answer: 15 nM

Question: Which Ki does the source give for `CC1(C)CCC(CN2CCN(c3ccc(C(=O)NS(=O)(=O)c4ccc(NCC5CCOCC5)c([N+](=O)[O-])c4)c(Oc4cc(NC(=O)OC(C)(C)C)nc(NC(=O)OC(C)(C)C)c4)c3)CC2)=C(c2ccc(Cl)cc2)C1` [Example 373, 4-(4-{[2-(4-chlorophenyl)-4,4-dimethylcyclohex-1-en-1-yl]methyl}piperazin-1-yl)-2-[(2,6-Bis-tert-butoxycarbonylamino-pyridin-4-yl)oxy]-N-({3-nitro-4-[(tetrahydro-2H-pyran-4-ylmethyl)amino]phenyl}sulfonyl)benzamide] here?
Answer: 1200 nM

Question: Which Ki does the source give for `CC1(C)CCC(CN2CCN(c3ccc(C(=O)NS(=O)(=O)c4ccc(NCC5CCOCC5)c([N+](=O)[O-])c4)c(Oc4ccc(NC5CC5)nc4)c3)CC2)=C(c2ccc(Cl)cc2)C1` [Example 374, 4-(4-{[2-(4-chlorophenyl)-4,4-dimethylcyclohex-1-en-1-yl]methyl}piperazin-1-yl)-2-{[6-(cyclopropylamino)pyridin-3-yl]oxy}-N-({3-nitro-4-[(tetrahydro-2H-pyran-4-ylmethyl)amino]phenyl}sulfonyl)benzamide] here?
Answer: 5.34 nM

Question: Which Ki does the source give for `CC1(C)CCC(CN2CCN(c3ccc(C(=O)NS(=O)(=O)c4ccc(NCC5CCOCC5)c([N+](=O)[O-])c4)c(Oc4ccc(NCC(F)F)nc4)c3)CC2)=C(c2ccc(Cl)cc2)C1` [Example 376, 4-(4-{[2-(4-chlorophenyl)-4,4-dimethylcyclohex-1-en-1-yl]methyl}piperazin-1-yl)-2-({6-[(2,2-difluoroethyl)amino]pyridin-3-yl}oxy)-N-({3-nitro-4-[(tetrahydro-2H-pyran-4-ylmethyl)amino]phenyl}sulfonyl)benzamide] here?
Answer: 57.7 nM

Question: With `CNc1ncc(Oc2cc(N3CCN(CC4=C(c5ccc(Cl)cc5)CC(C)(C)CC4)CC3)ccc2C(=O)NS(=O)(=O)c2ccc(NCC3CCOCC3)c([N+](=O)[O-])c2)cc1Cl` [Example 377, 2-{[5-chloro-6-(methylamino)pyridin-3-yl]oxy}-4-(4-{[2-(4-chlorophenyl)-4,4-dimethylcyclohex-1-en-1-yl]methyl}piperazin-1-yl)-N-({3-nitro-4-[(tetrahydro-2H-pyran-4-ylmethyl)amino]phenyl}sulfonyl)benzamide] as the compound, how does the Ki read?
Answer: 2.32 nM

Question: For `CC1(C)CCC(CN2CCN(c3ccc(C(=O)NS(=O)(=O)c4ccc(NCC5CN(C(CF)CF)CCO5)c([N+](=O)[O-])c4)c(Oc4cnc(N)c(Cl)c4)c3)CC2)=C(c2ccc(Cl)cc2)C1` (stereo not drawn) [Example 378, 2-[(6-amino-5-chloropyridin-3-yl)oxy]-4-(4-{[2-(4-chlorophenyl)-4,4-dimethylcyclohex-1-en-1-yl]methyl}piperazin-1-yl)-N-({4-[({4-[2-fluoro-1-(fluoromethyl)ethyl]morpholin-2-yl}methyl)amino]-3-nitrophenyl}sulfonyl)benzamide], which Ki is on record?
Answer: < 0.01 nM

Question: For `CC1(C)CCC(CN2CCN(c3ccc(C(=O)NS(=O)(=O)c4ccc(NCC5CCOCC5)c([N+](=O)[O-])c4)c(Oc4cc(N)nc(Br)c4)c3)CC2)=C(c2ccc(Cl)cc2)C1` [Example 379, 2-[(2-amino-6-bromopyridin-4-yl)oxy]-4-(4-{[2-(4-chlorophenyl)-4,4-dimethylcyclohex-1-en-1-yl]methyl}piperazin-1-yl)-N-({3-nitro-4-[(tetrahydro-2H-pyran-4-ylmethyl)amino]phenyl}sulfonyl)benzamide], which Ki is on record?
Answer: 17.9 nM

Question: Which Ki does the source give for `CC1(C)CCC(CN2CCN(c3ccc(C(=O)NS(=O)(=O)c4ccc(NCC5CCOCC5)c([N+](=O)[O-])c4)c(Oc4cc(N)nc(N)c4)c3)CC2)=C(c2ccc(Cl)cc2)C1` [Example 380, 4-(4-{[2-(4-chlorophenyl)-4,4-dimethylcyclohex-1-en-1-yl]methyl}piperazin-1-yl)-2-[(2,6-diaminopyridin-4-yl)oxy]-N-({3-nitro-4-[(tetrahydro-2H-pyran-4-ylmethyl)amino]phenyl}sulfonyl)benzamide] here?
Answer: 8.27 nM

Question: How did the Ki turn out when `CC1(C)CCC(CN2CCN(c3ccc(C(=O)NS(=O)(=O)c4ccc(OCC5CCOCC5)c([N+](=O)[O-])c4)c(Oc4cnc(N)c(Cl)c4)c3)CC2)=C(c2ccc(Cl)cc2)C1` [Example 381, 2-[(6-amino-5-chloropyridin-3-yl)oxy]-4-(4-{[2-(4-chlorophenyl)-4,4-dimethylcyclohex-1-en-1-yl]methyl}piperazin-1-yl)-N-{[3-nitro-4-(tetrahydro-2H-pyran-4-ylmethoxy)phenyl]sulfonyl}benzamide] was run?
Answer: 0.02 nM
